Measurements: patent publication US20140315981A1, “STRATEGIES FOR PREVENTION AND/OR TREATMENT OF DISEASES BASED ON CD40 SILENCING” (FUNDACIO INSTITUT D'INVESTIGACIO BIOMEDICA DE BELLVITGE …, priority 2011, published 2014)

What was measured:
Assay type in all cases: in vivo
[1] = tested on: NZB/W F1 female mice; assay: Anti-DNA antibodies in serum by ELISA, murine lupus nephritis; settings: FIG. 2
Protocol: Urinary protein concentration was determined by a commercial kit based on the Ponceau method (BayerDiagnostics, Madrid, Spain). Serum creatinine levels (in milligrams per decilitre) were determined by Jaffés method on an autoanalyzer (Beckman Instruments, Palo Alto, Calif.) at the end of the follow-up. Anti-DNA antibodies levels of anti-DNA antibodies were measured before treatment, and subsequently each month and at sacrifice, using a commercially available ELISA kit (Alpha Diagnostic International, San Antonio, Tex., USA) according to manufacturer's instructions (serum diluted 1:100). This kit is based on a purified dsDNA coated microwell plate. Antibodies to dsDNA are directed against the phosphate-deoxyribose backbone of the DNA molecule. Anti-dsDNA from serum samples bind to extracted nuclear antigen immobilized on microtiter wells. Anti-mouse IgG-HRP conjugate is added, and the colour developed by chromogenic substrate addition. The enzymatic reaction (blue colour) is directly proportional to the amount of the anti-dsDNA in the sample. Kits contain positive and negative controls, and anti-DNA antibodies are estimated in a semi-quantitative way according to the optical density (o.d. 450).

[2] = tested on: NZB/W F1 female mice; assay: Survival of NZB/W F1 mice with lupus nephritis under treatment; settings: intraperitoneal treatment from six to nine months of age
Protocol: Animals NZB/W F1 female mice (Charles River, Spain) were used. […] Mice were housed in a constant temperature room with a 12-hour dark/12-hour light cycle, and were given free access to water and a standard laboratory diet.
(§1) Treatment was given from six to nine old months. Body weight was determined twice a month. Mice were placed in metabolic cages to collect 24-hour urine specimens before treatment, and again at six, seven and eight months. Blood was obtained from the tail vein at the same intervals. At the end of the follow-up, survivor animals were sacrificed and kidney processed for histological studies.
Data are expressed as mean+SE. Overall survival was analyzed by the Kaplan-Meier method. […] All P-values were two-tailed, and a P-value <0.05 was considered significant.

[3] = tested on: NZB/W F1 female mice; assay: Renal immunofluorescence of glomerular IgG and C3 deposition, murine lupus nephritis; settings: FIG. 7
Protocol: Renal immunofluorescence. For analysis of Ig and complement deposition, fluorescent staining of cryosections was used. Five-micrometer cryostat sections were fixed in acetone at −80° C. for 20 minutes, then blocked with 20% normal goat serum and directly stained with FITC-conjugated goat anti-mouse IgG at 1/300 (Sigma-Aldrich). To stain for complement, slides were then sequentially incubated in rat anti-mouse complement C3, at 1/50 (Cedarlane Laboratories Limited), followed by Alexa Fluor 546-conjugated goat anti-rat IgG at 1/1000 (Invitrogen, Molecular Probes). At least 30 glomeruli, visualized and photographed with an immunofluorescence microscope, from each animal were examined in a binded manner. A semiquantitative score of staining intensity and distribution from 0 to 4+ was given, where 0+ denotes no signal; 1+, minimal signal; 2+, low signal; 3+, moderate signal and 4+, strong signal intensity.

[4] = tested on: NZB/W F1 female mice; assay: Spleen weight and splenocyte B cell populations, murine lupus nephritis; settings: FIG. 9
[5] = tested on: NZB/W F1 female mice; assay: Proteinuria and renal function, murine lupus nephritis; settings: vs. control, FIG. 3
Protocol: as §1

`O=P1(N(CCCl)CCCl)NCCCO1` (centres unmarked) [CYP, cyclophosphamide] was tested, and the anti-dsDNA titers [1] was “lower”, the “Cumulative survival analyzed by the Kaplan-Meier method” value [2] was 100% and the “glomerular deposition of C3” value [3] was “more effective in reducing C3 deposition than costimulatory blockade”. For the same compound, the “proportion of B cells in splenocytes” value [4] was “markedly reduced” and the proteinuria [5] was “significantly lower”.
